Experimental data from ChEMBL document CHEMBL4024706 (Eur J Med Chem, 2017).

Key:
[1] = molecular target: Cyclin-dependent kinase 8 (Homo sapiens) (UniProt P49336); experiment: Inhibition of wild-type human partial length CDK8 (M1 to T360 residues) expressed in bacterial expression system assessed as residual activity at 1 uM by Kinomescan method relative to control
[2] = molecular target: Mitogen-activated protein kinase 3 (Homo sapiens) (UniProt P27361); experiment: Inhibition of wild-type human full length ERK1 (M1 to P379 residues) expressed in bacterial expression system assessed as residual activity at 1 uM by Kinomescan method relative to control
Sequence of Mitogen-activated protein kinase 3 (Homo sapiens) (P27361 whole entry, the tested form may be a part): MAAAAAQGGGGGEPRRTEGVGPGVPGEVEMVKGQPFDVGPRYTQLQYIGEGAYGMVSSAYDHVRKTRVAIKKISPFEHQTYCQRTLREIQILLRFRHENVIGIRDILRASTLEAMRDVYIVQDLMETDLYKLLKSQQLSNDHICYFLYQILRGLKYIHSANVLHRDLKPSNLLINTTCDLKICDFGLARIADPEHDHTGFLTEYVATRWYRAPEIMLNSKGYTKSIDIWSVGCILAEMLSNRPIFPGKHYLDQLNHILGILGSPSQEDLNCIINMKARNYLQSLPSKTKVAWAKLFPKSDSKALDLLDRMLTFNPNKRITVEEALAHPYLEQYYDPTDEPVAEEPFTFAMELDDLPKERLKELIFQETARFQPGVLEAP

[3] = molecular target: Serine/threonine-protein kinase SIK2 (Homo sapiens) (UniProt Q9H0K1); experiment: Inhibition of wild-type human full length SIK2 (M1 to N926 residues) expressed in bacterial expression system assessed as residual activity at 1 uM by Kinomescan method relative to control
Sequence of Serine/threonine-protein kinase SIK2 (Homo sapiens) (Q9H0K1 whole entry, looked up, the tested form may be a part): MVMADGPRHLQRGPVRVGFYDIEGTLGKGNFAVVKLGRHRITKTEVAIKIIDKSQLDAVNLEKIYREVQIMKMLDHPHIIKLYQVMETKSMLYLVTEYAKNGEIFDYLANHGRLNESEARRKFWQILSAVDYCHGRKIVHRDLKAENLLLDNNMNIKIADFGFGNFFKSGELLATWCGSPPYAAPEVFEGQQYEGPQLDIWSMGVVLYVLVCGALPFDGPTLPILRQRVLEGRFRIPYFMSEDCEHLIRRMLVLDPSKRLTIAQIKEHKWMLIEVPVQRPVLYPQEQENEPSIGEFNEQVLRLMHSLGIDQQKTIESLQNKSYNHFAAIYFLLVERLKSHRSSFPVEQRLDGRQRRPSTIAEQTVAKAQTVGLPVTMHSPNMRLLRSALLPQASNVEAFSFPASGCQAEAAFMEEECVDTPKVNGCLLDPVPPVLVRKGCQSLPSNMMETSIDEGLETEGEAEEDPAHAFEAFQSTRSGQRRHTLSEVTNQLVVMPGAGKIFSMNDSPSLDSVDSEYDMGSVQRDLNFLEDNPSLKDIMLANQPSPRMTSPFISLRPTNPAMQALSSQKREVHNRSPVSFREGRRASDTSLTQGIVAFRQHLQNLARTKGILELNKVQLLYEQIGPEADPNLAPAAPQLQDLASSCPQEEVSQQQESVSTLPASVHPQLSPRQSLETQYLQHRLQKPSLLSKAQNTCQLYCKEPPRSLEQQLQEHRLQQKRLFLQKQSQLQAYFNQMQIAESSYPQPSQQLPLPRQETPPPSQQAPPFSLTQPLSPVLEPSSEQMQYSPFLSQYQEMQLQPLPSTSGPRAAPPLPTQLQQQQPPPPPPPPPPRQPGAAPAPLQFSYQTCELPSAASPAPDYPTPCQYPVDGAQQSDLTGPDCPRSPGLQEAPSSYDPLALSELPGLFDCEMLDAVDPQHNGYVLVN

[4] = molecular target: Dual specificity protein kinase CLK1 (Homo sapiens) (UniProt P49759); experiment: Inhibition of wild-type human full length CLK1 (M1 to I484 residues) expressed in bacterial expression system assessed as residual activity at 1 uM by Kinomescan method relative to control
Sequence of Dual specificity protein kinase CLK1 (Homo sapiens) (P49759 whole entry, looked up, the tested form may be a part): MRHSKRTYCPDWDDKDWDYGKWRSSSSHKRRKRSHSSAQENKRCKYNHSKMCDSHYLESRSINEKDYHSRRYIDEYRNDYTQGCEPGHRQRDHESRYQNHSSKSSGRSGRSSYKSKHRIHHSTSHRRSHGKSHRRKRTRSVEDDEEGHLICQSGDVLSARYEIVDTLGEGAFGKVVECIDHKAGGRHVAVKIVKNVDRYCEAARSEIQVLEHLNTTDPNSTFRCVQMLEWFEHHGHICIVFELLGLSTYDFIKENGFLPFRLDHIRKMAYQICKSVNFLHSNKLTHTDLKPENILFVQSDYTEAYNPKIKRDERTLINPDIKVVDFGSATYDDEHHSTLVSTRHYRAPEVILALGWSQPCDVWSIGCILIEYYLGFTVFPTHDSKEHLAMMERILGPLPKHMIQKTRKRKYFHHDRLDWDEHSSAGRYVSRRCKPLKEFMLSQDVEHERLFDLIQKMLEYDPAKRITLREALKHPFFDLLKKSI

[5] = molecular target: NT-3 growth factor receptor (Homo sapiens) (UniProt Q16288); experiment: Inhibition of wild-type human partial length TRKC (Q531 to G825 residues) expressed in mammalian expression system assessed as residual activity at 1 uM by Kinomescan method relative to control
[6] = molecular target: Casein kinase II subunit alpha (Homo sapiens) (UniProt P68400); experiment: Inhibition of wild-type human full length CSNK2A1 (M1 to Q391 residues) expressed in mammalian expression system assessed as residual activity at 1 uM by Kinomescan method relative to control
[7] = test system: Receptor-type tyrosine-protein kinase FLT3 (Homo sapiens), P36888 [N841I]; experiment: Inhibition of human partial length FLT3 N841I mutant (V592 to Y969 residues) expressed in bacterial expression system assessed as residual activity at 1 uM by Kinomescan method relative to control
[8] = molecular target: Insulin receptor-related protein (Homo sapiens) (UniProt P14616); experiment: Inhibition of wild-type human partial length INSRR (R950 to E1278 residues) expressed in bacterial expression system assessed as residual activity at 1 uM by Kinomescan method relative to control
Sequence of Insulin receptor-related protein (Homo sapiens) (P14616 27-742 limits assumed): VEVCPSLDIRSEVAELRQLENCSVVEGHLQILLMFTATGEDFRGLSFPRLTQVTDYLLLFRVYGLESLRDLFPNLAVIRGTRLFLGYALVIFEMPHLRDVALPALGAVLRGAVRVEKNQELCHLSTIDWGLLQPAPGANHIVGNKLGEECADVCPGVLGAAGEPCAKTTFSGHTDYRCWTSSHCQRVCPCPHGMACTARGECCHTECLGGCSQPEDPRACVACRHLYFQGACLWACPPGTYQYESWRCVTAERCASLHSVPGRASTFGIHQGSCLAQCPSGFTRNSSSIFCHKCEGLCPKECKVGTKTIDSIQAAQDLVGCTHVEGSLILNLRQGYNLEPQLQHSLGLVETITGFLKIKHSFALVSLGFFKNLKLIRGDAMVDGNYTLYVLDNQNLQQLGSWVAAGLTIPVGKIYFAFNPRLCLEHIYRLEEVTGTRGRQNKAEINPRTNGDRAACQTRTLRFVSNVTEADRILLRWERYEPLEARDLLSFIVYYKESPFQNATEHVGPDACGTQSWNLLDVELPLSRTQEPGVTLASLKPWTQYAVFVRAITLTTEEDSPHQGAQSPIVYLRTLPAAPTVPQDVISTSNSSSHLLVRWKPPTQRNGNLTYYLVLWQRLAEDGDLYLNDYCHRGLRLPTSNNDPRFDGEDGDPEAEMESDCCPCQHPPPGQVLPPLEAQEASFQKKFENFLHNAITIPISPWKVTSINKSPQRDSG
Sequence of Insulin receptor-related protein (Homo sapiens) (P14616 747-1297 limits assumed): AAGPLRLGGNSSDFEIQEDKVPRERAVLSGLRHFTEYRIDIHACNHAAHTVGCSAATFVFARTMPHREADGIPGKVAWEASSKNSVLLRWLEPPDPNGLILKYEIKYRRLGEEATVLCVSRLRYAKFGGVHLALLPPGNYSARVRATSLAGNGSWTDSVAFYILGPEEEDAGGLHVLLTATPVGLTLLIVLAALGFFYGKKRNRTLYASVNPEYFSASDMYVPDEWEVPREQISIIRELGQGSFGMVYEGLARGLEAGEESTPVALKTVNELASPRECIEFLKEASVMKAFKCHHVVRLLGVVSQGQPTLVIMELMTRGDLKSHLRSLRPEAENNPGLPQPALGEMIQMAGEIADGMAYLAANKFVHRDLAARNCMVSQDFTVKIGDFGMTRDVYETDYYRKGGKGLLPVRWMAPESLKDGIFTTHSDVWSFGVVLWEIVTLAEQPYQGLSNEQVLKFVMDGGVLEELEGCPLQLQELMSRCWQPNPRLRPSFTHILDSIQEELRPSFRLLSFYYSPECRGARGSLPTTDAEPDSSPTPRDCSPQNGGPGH

[9] = molecular target: RAC-alpha serine/threonine-protein kinase (Homo sapiens) (UniProt P31749); experiment: Inhibition of wild-type human partial length AKT1 expressed in bacterial expression system assessed as residual activity at 1 uM by Kinomescan method relative to control
[10] = molecular target: Mitogen-activated protein kinase kinase kinase 6 (Homo sapiens) (UniProt O95382); experiment: Inhibition of wild-type human partial length ASK2 (M278 to R972 residues) expressed in mammalian expression system assessed as residual activity at 1 uM by Kinomescan method relative to control
[11] = Elimination half-life in Sprague-Dawley rat at 1 mg/kg, iv by LC-MS/MS method; type: ADME, organism-based; details: in vivo, read-out: beta t1/2 (converted)
[12] = molecular target: Serine/threonine-protein kinase N1 (Homo sapiens) (UniProt Q16512); experiment: Inhibition of wild-type human partial length PKN1 (E598 to C948 residues) expressed in bacterial expression system assessed as residual activity at 1 uM by Kinomescan method relative to control
[13] = molecular target: Phosphatidylinositol 4-phosphate 3-kinase C2 domain-containing subunit beta (Homo sapiens) (UniProt O00750); experiment: Inhibition of wild-type human partial length PIK3C2B (M1 to L1634 residues) expressed in mammalian expression system assessed as residual activity at 1 uM by Kinomescan method relative to control
[14] = molecular target: Proto-oncogene tyrosine-protein kinase ROS (Homo sapiens) (UniProt P08922); experiment: Inhibition of wild-type human partial length ROS1 (A1921 to N2240 residues) expressed in bacterial expression system assessed as residual activity at 1 uM by Kinomescan method relative to control
[15] = molecular target: Serine/threonine-protein kinase pim-3 (Homo sapiens) (UniProt Q86V86); experiment: Inhibition of wild-type human partial length PIM3 (G16 to A317 residues) expressed in bacterial expression system assessed as residual activity at 1 uM by Kinomescan method relative to control
[16] = molecular target: Serine/threonine-protein kinase TAO1 (Homo sapiens) (UniProt Q7L7X3); experiment: Inhibition of wild-type human partial length TAOK1 (M1 to A320 residues) expressed in mammalian expression system assessed as residual activity at 1 uM by Kinomescan method relative to control
[17] = test system: Hepatocyte growth factor receptor (Homo sapiens), P08581 [Y1235D]; experiment: Inhibition of human partial length MET Y1235D mutant (D1010 to S1367 residues) expressed in bacterial expression system assessed as residual activity at 1 uM by Kinomescan method relative to control
[18] = molecular target: Platelet-derived growth factor receptor beta (Homo sapiens) (UniProt P09619); experiment: Inhibition of wild-type human partial length PDGFRB (V582 to Y1009 residues) expressed in bacterial expression system assessed as residual activity at 1 uM by Kinomescan method relative to control
[19] = molecular target: cGMP-dependent protein kinase 2 (Homo sapiens) (UniProt Q13237); experiment: Inhibition of wild-type human partial length PRKG2 (S422 to F762 residues) expressed in mammalian expression system assessed as residual activity at 1 uM by Kinomescan method relative to control
[20] = molecular target: Serine/threonine-protein kinase PAK 6 (Homo sapiens) (UniProt Q9NQU5); experiment: Inhibition of wild-type human partial length PAK6 (N298 to C681 residues) expressed in bacterial expression system assessed as residual activity at 1 uM by Kinomescan method relative to control
[21] = molecular target: Tyrosine-protein kinase ABL1 (Homo sapiens) (UniProt P00519); experiment: Inhibition of wild-type human phosphorylated ABL1 (S229 to K512 residues) expressed in mammalian expression system assessed as residual activity at 1 uM by Kinomescan method relative to control
[22] = molecular target: Tyrosine-protein kinase receptor UFO (Homo sapiens) (UniProt P30530); experiment: Inhibition of wild-type human partial length AXL (R497 to Y821 residues) expressed in bacterial expression system assessed as residual activity at 1 uM by Kinomescan method relative to control
Sequence of Tyrosine-protein kinase receptor UFO (Homo sapiens) (P30530 whole entry, the tested form may be a part): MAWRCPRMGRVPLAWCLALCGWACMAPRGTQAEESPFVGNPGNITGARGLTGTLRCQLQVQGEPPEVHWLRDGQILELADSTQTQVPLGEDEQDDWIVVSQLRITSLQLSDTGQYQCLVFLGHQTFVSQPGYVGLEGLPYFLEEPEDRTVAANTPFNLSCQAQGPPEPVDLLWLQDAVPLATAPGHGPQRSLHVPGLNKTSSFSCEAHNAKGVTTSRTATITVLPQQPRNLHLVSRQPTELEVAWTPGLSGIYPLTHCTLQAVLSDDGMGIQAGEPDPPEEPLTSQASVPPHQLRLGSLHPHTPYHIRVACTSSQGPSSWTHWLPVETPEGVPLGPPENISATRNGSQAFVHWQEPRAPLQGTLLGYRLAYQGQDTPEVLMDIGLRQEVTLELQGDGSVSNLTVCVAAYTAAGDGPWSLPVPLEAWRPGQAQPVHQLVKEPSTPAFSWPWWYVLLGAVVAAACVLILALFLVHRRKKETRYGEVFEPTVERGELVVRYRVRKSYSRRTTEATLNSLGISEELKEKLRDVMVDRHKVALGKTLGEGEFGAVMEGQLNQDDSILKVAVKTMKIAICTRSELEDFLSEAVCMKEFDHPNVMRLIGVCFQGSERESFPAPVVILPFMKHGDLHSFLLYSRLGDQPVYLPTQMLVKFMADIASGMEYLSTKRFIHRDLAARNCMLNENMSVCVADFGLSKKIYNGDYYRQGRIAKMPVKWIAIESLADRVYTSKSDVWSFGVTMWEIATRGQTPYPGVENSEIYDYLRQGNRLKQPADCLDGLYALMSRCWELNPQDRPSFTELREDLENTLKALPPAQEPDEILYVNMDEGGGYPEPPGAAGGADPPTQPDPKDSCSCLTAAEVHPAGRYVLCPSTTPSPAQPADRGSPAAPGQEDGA

[23] = molecular target: Ephrin type-A receptor 3 (Homo sapiens) (UniProt P29320); experiment: Inhibition of wild-type human partial length EPHA3 (D604 to K889 residues) expressed in bacterial expression system assessed as residual activity at 1 uM by Kinomescan method relative to control
[24] = molecular target: Tyrosine-protein kinase BTK (Homo sapiens, UniProt Q06187); experiment: Inhibition of BTK auto-phosphorylation at Y223 in human Pfeiffer cells measured after 4 hrs by chemiluminescent assay
[25] = molecular target: Serine/threonine-protein kinase SIK1 (Homo sapiens) (UniProt P57059); experiment: Inhibition of wild-type human partial length SIK (M1 to Y304 residues) expressed in bacterial expression system assessed as residual activity at 1 uM by Kinomescan method relative to control
[26] = molecular target: MAP kinase-interacting serine/threonine-protein kinase 1 (Homo sapiens) (UniProt Q9BUB5); experiment: Inhibition of wild-type human full length MKNK1 (M1 to L424 residues) expressed in mammalian expression system assessed as residual activity at 1 uM by Kinomescan method relative to control
Sequence of MAP kinase-interacting serine/threonine-protein kinase 1 (Homo sapiens) (Q9BUB5 whole entry, looked up, the tested form may be a part): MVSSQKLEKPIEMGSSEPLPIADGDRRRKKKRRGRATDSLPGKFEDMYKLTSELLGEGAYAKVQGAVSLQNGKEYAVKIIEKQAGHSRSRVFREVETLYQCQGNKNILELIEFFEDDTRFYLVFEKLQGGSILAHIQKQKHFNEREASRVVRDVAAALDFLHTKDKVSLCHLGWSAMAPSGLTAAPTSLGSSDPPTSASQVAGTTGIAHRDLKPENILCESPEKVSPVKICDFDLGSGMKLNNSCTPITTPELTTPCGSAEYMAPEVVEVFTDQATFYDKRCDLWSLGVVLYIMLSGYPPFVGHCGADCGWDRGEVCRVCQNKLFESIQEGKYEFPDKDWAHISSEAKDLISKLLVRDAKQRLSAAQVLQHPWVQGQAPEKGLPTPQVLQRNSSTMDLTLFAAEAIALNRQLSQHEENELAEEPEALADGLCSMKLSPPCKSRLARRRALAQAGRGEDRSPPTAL

C=CC(=O)Nc1cc(Nc2cc(-c3cccc(NC(=O)c4ccc(C(C)(C)C)cc4)c3C)cn(C)c2=O)ccc1C(=O)N1CCOCC1
Activity [1]: 100%
Activity [2]: 99%
Activity [3]: 87%
Activity [4]: 97%
Activity [5]: 76%
Activity [6]: 100%
Activity [7]: 100%
Activity [8]: 100%
Activity [9]: 100%
Activity [10]: 95%
half-life [11]: 13.8 min
Activity [12]: 100%
Activity [13]: 92%
Activity [14]: 100%
Activity [15]: 98%
Activity [16]: 100%
Activity [17]: 89%
Activity [18]: 92%
Activity [19]: 96%
Activity [20]: 100%
Activity [21]: 100%
Activity [22]: 86%
Activity [23]: 95%
EC50 [24]: < 30 nM
Activity [25]: 93%
Activity [26]: 91%
